According to BindingDB's records for doi:10.1021/jm990447m (Metabasis Therapeutics, 2000):

Experiment: Evaluated for the inhibition of porcine heart or human L-type Adenosine 5'-monophosphate deaminase (AMPDA)

SMILES | Ki [µM]
N#CCCCCCCn1cnc2c1N=CNCC2O (stereo unspecified) [7-(8-Hydroxy-7,8-dihydro-6H-imidazo[4,5-d][1,3]diazepin-3-yl)-heptanenitrile] | 170
O=C(O)CCCOCn1cnc2c1N=CNCC2O (stereo unspecified) [Sodium; 4-(8-hydroxy-7,8-dihydro-6H-imidazo[4,5-d][1,3]diazepin-3-ylmethoxy)-butyrate H2O] | 85
COC(=O)CCCCCCCn1cnc2c1N=CNCC2O (stereo unspecified) [8-(8-Hydroxy-7,8-dihydro-6H-imidazo[4,5-d][1,3]diazepin-3-yl)-octanoic acid methyl ester] | 20
CCCCCCCCn1cnc2c1N=CNCC2O (stereo unspecified) [3-Octyl-3,6,7,8-tetrahydro-imidazo[4,5-d][1,3]diazepin-8-ol 0.25H2O] | 18

These reach a lower Ki. Values come first.

Ki [µM] | SMILES
10 | CCCCCCCn1cnc2c1N=CNCC2O (stereo unspecified) [3-Heptyl-3,6,7,8-tetrahydro-imidazo[4,5-d][1,3]diazepin-8-ol]
8 | O=C(O)CCCCCCCn1cnc2c1N=CNCC2O (stereo unspecified) [8-(8-Hydroxy-7,8-dihydro-6H-imidazo[4,5-d][1,3]diazepin-3-yl)-octanoic acid]
